# Assay results published in ChEMBL document CHEMBL5634099, “Pyrrole-thiazolidinone hybrids as a new structural class of broad-spectrum anti-infectives” (Eur J Med Chem, 2023).
# How the values were obtained:
# [1] = test system: Mycobacterium tuberculosis; assay: Antimycobacterial activity against Mycobacterium tuberculosis H37Rv ATCC 27294 assessed as bacterial growth inhibition incubated for 7 days by resazurin dye based assay; format: functional; conditions: H37Rv ATCC 27294, 168 h, time 7 day
# Escherichia coli = assay: Antibacterial activity against Escherichia coli ATCC 25922 assessed as bacterial growth inhibition incubated for 16 to 18 hrs by CLSI based susceptibility testing method; format: functional; conditions: time 16-18 hrs
# Klebsiella pneumoniae = assay: Antibacterial activity against Klebsiella pneumoniae BAA 1705 assessed as bacterial growth inhibition incubated for 16 to 18 hrs by CLSI based susceptibility testing method; format: functional; conditions: time 16-18 hrs
# Acinetobacter baumannii = assay: Antibacterial activity against Acinetobacter baumannii BAA 1605 assessed as bacterial growth inhibition incubated for 16 to 18 hrs by CLSI based susceptibility testing method; format: functional; conditions: time 16-18 hrs
# [2] = test system: Mycolicibacterium fortuitum; assay: Antimycobacterial activity against Mycobacterium fortuitum ATCC 6841 assessed as bacterial growth inhibition incubated for 7 days by resazurin dye based assay; format: functional; conditions: ATCC 6841, 168 h, time 7 day
# Mycobacteroides chelonae = assay: Antimycobacterial activity against Mycobacteroides chelonae ATCC 35752 assessed as bacterial growth inhibition incubated for 7 days by resazurin dye based assay; format: functional; conditions: ATCC 35752, 168 h, time 7 day
# Staphylococcus aureus [3] = assay: Antibacterial activity against Staphylococcus aureus ATCC 29213 assessed as bacterial growth inhibition incubated for 16 to 18 hrs by CLSI based susceptibility testing method; format: functional; conditions: time 16-18 hrs
# [4] = test system: Mycobacteroides abscessus; assay: Antimycobacterial activity against Mycobacterium abscessus ATCC 19977 assessed as bacterial growth inhibition incubated for 7 days by resazurin dye based assay; format: functional; conditions: ATCC 19977, 168 h, time 7 day
# Pseudomonas aeruginosa = assay: Antibacterial activity against Pseudomonas aeruginosa ATCC 27853 assessed as bacterial growth inhibition incubated for 16 to 18 hrs by CLSI based susceptibility testing method; format: functional; conditions: time 16-18 hrs
# [5] = Selectivity index, ratio of CC50 for African green monkey Vero cells to IC50 for Mycobacterium tuberculosis H37Rv ATCC 27294; format: toxicity; conditions: read-out: Selectivity Index
# [6] = Cytotoxicity against African green monkey Vero cells assessed as reduction in cell viability incubated for 72 hrs by MTT assay; format: toxicity, cell-based; conditions: chlorocebus sabaeus
# Staphylococcus aureus [7] = assay: Antibacterial activity against methicillin-resistant Staphylococcus aureus NR 194 clinical isolate assessed as bacterial growth inhibition incubated for 16 to 18 hrs by CLSI based susceptibility testing method; format: functional; conditions: time 16-18 hrs
# Staphylococcus aureus [8] = assay: Antibacterial activity against vancomycin-resistant Staphylococcus aureus VRS 12 clinical isolate assessed as bacterial growth inhibition incubated for 16 to 18 hrs by CLSI based susceptibility testing method; format: functional; conditions: time 16-18 hrs
# [9] = Selectivity index, ratio of CC50 for African green monkey Vero cells to IC50 for Staphylococcus aureus ATCC 29213; format: toxicity; conditions: read-out: Selectivity Index
# Staphylococcus aureus [10] = assay: Antibacterial activity against methicillin-resistant Staphylococcus aureus NR 191 clinical isolate assessed as bacterial growth inhibition incubated for 16 to 18 hrs by CLSI based susceptibility testing method; format: functional; conditions: time 16-18 hrs
# Staphylococcus aureus [11] = assay: Antibacterial activity against methicillin-resistant Staphylococcus aureus NR 100 clinical isolate assessed as bacterial growth inhibition incubated for 16 to 18 hrs by CLSI based susceptibility testing method; format: functional; conditions: time 16-18 hrs
# Staphylococcus aureus [12] = assay: Antibiofilm activity against Staphylococcus aureus ATCC 29213 assessed as reduction in biofilm formation at 10 times MIC incubated for 24 hrs by absorbance based assay relative to control; format: functional; parameters: scale not given: the % may be the effect or the level left
# Staphylococcus aureus [13] = assay: Antibacterial activity against methicillin-resistant Staphylococcus aureus NR 129 clinical isolate assessed as bacterial growth inhibition incubated for 16 to 18 hrs by CLSI based susceptibility testing method; format: functional; conditions: time 16-18 hrs
# Staphylococcus aureus [14] = assay: Antibacterial activity against methicillin-sensitive Staphylococcus aureus ATCC 29213 clinical isolate assessed as bacterial growth inhibition incubated for 16 to 18 hrs by CLSI based susceptibility testing method; format: functional; conditions: time 16-18 hrs
# Staphylococcus aureus [15] = assay: Antibacterial activity against methicillin-resistant Staphylococcus aureus NR 119 clinical isolate assessed as bacterial growth inhibition incubated for 16 to 18 hrs by CLSI based susceptibility testing method; format: functional; conditions: time 16-18 hrs
# Staphylococcus aureus [16] = assay: Antibacterial activity against vancomycin-resistant Staphylococcus aureus VRS 1 clinical isolate assessed as bacterial growth inhibition incubated for 16 to 18 hrs by CLSI based susceptibility testing method; format: functional; conditions: time 16-18 hrs
# Staphylococcus aureus [17] = assay: Antibacterial activity against methicillin-resistant Staphylococcus aureus NR 193 clinical isolate assessed as bacterial growth inhibition incubated for 16 to 18 hrs by CLSI based susceptibility testing method; format: functional; conditions: time 16-18 hrs
# Staphylococcus aureus [18] = assay: Antibacterial activity against methicillin-resistant Staphylococcus aureus NR 186 clinical isolate assessed as bacterial growth inhibition incubated for 16 to 18 hrs by CLSI based susceptibility testing method; format: functional; conditions: time 16-18 hrs
# Staphylococcus aureus [19] = assay: Antibacterial activity against methicillin-resistant Staphylococcus aureus NR 198 clinical isolate assessed as bacterial growth inhibition incubated for 16 to 18 hrs by CLSI based susceptibility testing method; format: functional; conditions: time 16-18 hrs
# Staphylococcus aureus [20] = assay: Antibacterial activity against methicillin-resistant Staphylococcus aureus NR 192 clinical isolate assessed as bacterial growth inhibition incubated for 16 to 18 hrs by CLSI based susceptibility testing method; format: functional; conditions: time 16-18 hrs
# Staphylococcus aureus [21] = assay: Antibacterial activity against vancomycin-resistant Staphylococcus aureus VRS 4 clinical isolate assessed as bacterial growth inhibition incubated for 16 to 18 hrs by CLSI based susceptibility testing method; format: functional; conditions: time 16-18 hrs
Structure (SMILES),MIC [1] [µg/mL],MIC (Escherichia coli) [µg/mL],MIC (Klebsiella pneumoniae) [µg/mL],MIC (Acinetobacter baumannii) [µg/mL],MIC [2] [µg/mL],MIC (Mycobacteroides chelonae) [µg/mL],MIC (Staphylococcus aureus [3]) [µg/mL],MIC [4] [µg/mL],MIC (Pseudomonas aeruginosa) [µg/mL],further results
Cc1nc(/N=C2\NC(=O)/C(=C/c3cc(C)n(-c4cccc(Cl)c4)c3C)S2)sc1C,4,> 64,> 64,> 64,> 64,> 64,> 64,> 64,> 64,
Cc1nc(/N=C2\NC(=O)/C(=C/c3cc(C)n(-c4ccc([N+](=O)[O-])cc4)c3C)S2)sc1C,> 64,> 64,> 64,> 64,> 64,> 64,> 64,> 64,> 64,
Cc1nc(/N=C2\NC(=O)/C(=C/c3cc(C)n(-c4ccc(Cl)cc4)c3C)S2)sc1C,> 64,> 64,> 64,> 64,> 64,> 64,> 64,> 64,> 64,
Cc1ccc(-n2c(C)cc(/C=C3\S/C(=N/c4nc(C)c(C)s4)NC3=O)c2C)cc1,> 64,> 64,> 64,> 64,> 64,> 64,> 64,> 64,> 64,
Cc1nc(/N=C2\NC(=O)/C(=C/c3cc(C)n(-c4ccccc4Br)c3C)S2)sc1C,4,> 64,> 64,> 64,> 64,> 64,> 64,> 64,> 64,
Cc1ccc(-n2c(C)cc(/C=C3\S/C(=N/c4nccs4)NC3=O)c2C)cc1C,0.5,> 64,> 64,> 64,> 64,> 64,16,> 64,> 64,selectivity ratio [5]: 80; CC50 at 72 h [6]: 40 µg/mL
Cc1nc(/N=C2\NC(=O)/C(=C/c3cc(C)n(-c4ccc([N+](=O)[O-])c(C(F)(F)F)c4)c3C)S2)sc1C,> 64,> 64,> 64,> 64,> 64,> 64,16,> 64,> 64,
COc1ccc(-n2c(C)cc(/C=C3\S/C(=N/c4nc(C)c(C)s4)NC3=O)c2C)cc1OC,> 64,> 64,> 64,> 64,> 64,> 64,64,> 64,> 64,
Cc1nc(/N=C2\NC(=O)/C(=C/c3cc(C)n(-c4ccc(N5CCOCC5)cc4)c3C)S2)sc1C,> 64,> 64,> 64,> 64,> 64,> 64,64,> 64,> 64,
Cc1nc(/N=C2\NC(=O)/C(=C/c3cc(C)n(-c4cccc(F)c4)c3C)S2)sc1C,64,> 64,> 64,> 64,> 64,> 64,> 64,> 64,> 64,
COc1ccccc1-n1c(C)cc(/C=C2\S/C(=N/c3nccs3)NC2=O)c1C,2,> 64,> 64,> 64,> 64,> 64,0.5,> 64,> 64,MIC (Staphylococcus aureus [7]): 2 µg/mL; MIC (Staphylococcus aureus [8]): 2 µg/mL; selectivity ratio [9]: 80; MIC (Staphylococcus aureus [10]): 2 µg/mL; MIC (Staphylococcus aureus [11]): 1 µg/mL; Activity (Staphylococcus aureus [12]): >11%; MIC (Staphylococcus aureus [13]): 2 µg/mL; MIC (Staphylococcus aureus [14]): 0.5 µg/mL; MIC (Staphylococcus aureus [15]): 2 µg/mL; CC50 at 72 h [6]: 40 µg/mL; MIC (Staphylococcus aureus [16]): 2 µg/mL; MIC (Staphylococcus aureus [17]): 2 µg/mL; MIC (Staphylococcus aureus [18]): 1 µg/mL; MIC (Staphylococcus aureus [19]): 2 µg/mL; MIC (Staphylococcus aureus [20]): 2 µg/mL; MIC (Staphylococcus aureus [21]): 2 µg/mL
Cc1nc(/N=C2\NC(=O)/C(=C/c3cc(C)n(-c4ccccc4Cl)c3C)S2)sc1C,2,> 64,> 64,> 64,> 64,> 64,> 64,> 64,> 64,
Cc1nc(/N=C2\NC(=O)/C(=C/c3cc(C)n(-c4ccc(F)cc4)c3C)S2)sc1C,16,> 64,> 64,> 64,> 64,> 64,> 64,> 64,> 64,
Cc1ccc(-n2c(C)cc(/C=C3\S/C(=N/c4nc(C)c(C)s4)NC3=O)c2C)cc1C,4,> 64,> 64,> 64,> 64,> 64,> 64,> 64,> 64,
C[C@H]1COc2c(N3CCN(C)CC3)c(F)cc3c(=O)c(C(=O)O)cn1c23 [LEVOFLOXACIN ANHYDROUS],,,64,,,,0.25,,,MIC (Staphylococcus aureus [7]): 0.125 µg/mL; MIC (Staphylococcus aureus [8]): 32 µg/mL; MIC (Staphylococcus aureus [10]): 16 µg/mL; MIC (Staphylococcus aureus [11]): 0.25 µg/mL; Activity (Staphylococcus aureus [12]): 10%; MIC (Staphylococcus aureus [13]): 0.25 µg/mL; MIC (Staphylococcus aureus [14]): 0.25 µg/mL; MIC (Staphylococcus aureus [15]): 16 µg/mL; MIC (Staphylococcus aureus [16]): 32 µg/mL; MIC (Staphylococcus aureus [17]): 32 µg/mL; MIC (Staphylococcus aureus [18]): 4 µg/mL; MIC (Staphylococcus aureus [19]): 32 µg/mL; MIC (Staphylococcus aureus [20]): 8 µg/mL; MIC (Staphylococcus aureus [21]): > 64 µg/mL
C[C@@H](O)[C@H]1C(=O)N2C(C(=O)O)=C(S[C@@H]3CN[C@H](C(=O)N(C)C)C3)[C@H](C)[C@H]12 [MEROPENEM],,,,,,,,,,MIC (Staphylococcus aureus [7]): 1 µg/mL; MIC (Staphylococcus aureus [8]): 4 µg/mL; MIC (Staphylococcus aureus [10]): 32 µg/mL; MIC (Staphylococcus aureus [11]): 32 µg/mL; MIC (Staphylococcus aureus [13]): 2 µg/mL; MIC (Staphylococcus aureus [14]): 0.125 µg/mL; MIC (Staphylococcus aureus [15]): 64 µg/mL; MIC (Staphylococcus aureus [16]): 64 µg/mL; MIC (Staphylococcus aureus [17]): 64 µg/mL; MIC (Staphylococcus aureus [18]): 4 µg/mL; MIC (Staphylococcus aureus [19]): 32 µg/mL; MIC (Staphylococcus aureus [20]): 8 µg/mL; MIC (Staphylococcus aureus [21]): 32 µg/mL
COc1cccc(OC)c1C(=O)N[C@@H]1C(=O)N2[C@@H]1SC(C)(C)[C@@H]2C(=O)O [METHICILLIN],,,,,,,,,,MIC (Staphylococcus aureus [7]): 32 µg/mL; MIC (Staphylococcus aureus [8]): > 64 µg/mL; MIC (Staphylococcus aureus [10]): > 64 µg/mL; MIC (Staphylococcus aureus [11]): > 64 µg/mL; MIC (Staphylococcus aureus [13]): 32 µg/mL; MIC (Staphylococcus aureus [14]): 1 µg/mL; MIC (Staphylococcus aureus [15]): > 64 µg/mL; MIC (Staphylococcus aureus [16]): > 64 µg/mL; MIC (Staphylococcus aureus [17]): > 64 µg/mL; MIC (Staphylococcus aureus [18]): 64 µg/mL; MIC (Staphylococcus aureus [19]): > 64 µg/mL; MIC (Staphylococcus aureus [20]): > 64 µg/mL; MIC (Staphylococcus aureus [21]): > 64 µg/mL
CN[C@H](CC(C)C)C(=O)N[C@H]1C(=O)N[C@@H](CC(N)=O)C(=O)N[C@H]2C(=O)N[C@H]3C(=O)N[C@H](C(=O)N[C@H](C(=O)O)c4cc(O)cc(O)c4-c4cc3ccc4O)[C@H](O)c3ccc(c(Cl)c3)Oc3cc2cc(c3O[C@@H]2O[C@H](CO)[C@@H](O)[C@H](O)[C@H]2O[C@H]2C[C@](C)(N)[C@H](O)[C@H](C)O2)Oc2ccc(cc2Cl)[C@H]1O [VANCOMYCIN],,,,,,,,,,MIC (Staphylococcus aureus [8]): > 64 µg/mL; Activity (Staphylococcus aureus [12]): 7.7%; MIC (Staphylococcus aureus [16]): > 64 µg/mL; MIC (Staphylococcus aureus [21]): > 64 µg/mL
